Here are results for 3 compounds from patent publication US20060029546A1, “Materials and methods for identifying anti-schizophrenic agents” (deCODE Genetics, Inc., priority 2004, published 2006).

Experiment [1] relates to Fyn. The note with it: cited from earlier work.
Another experiment relates to ErbB4. Briefly: ErbB4 tyrosine phosphorylation in HEK293 cells (Western blot). In kind it is cell-based. The settings on record: for NRG1-induced ErbB4 tyrosine phosphorylation: cells expressing ErbB4 and Fyn, inhibitor 25 nM. On the procedure: (§1) To determine whether NRG1-induced activation of ErbB4 leads to Fyn phosphorylation, NRG1 exposure of HEK293 cells stably expressing ErbB4 and Fyn-V5 were activated with 7.2 nM NRG1 (R&D Systems; Minneapolis, Minn.) for 10 minutes and lysed using RIPA buffer. […] There was no change in Fyn Tyr531 phosphorylation. […] Fyn is activated either by dephophorylation of Tyr531 with loss of the SH2 domain interaction, or through displacement of the SH2 domain by a second tyrosine phosphorylated binding partner allowing auto-phosphorylation on the Fyn activation loop residue Tyr420. Alternatively, Fyn can be phosphorylated on Tyr420 and activated directly by a second kinase. Thus, the NRG1-stimulated increase in Fyn Tyr420 phosphorylation may be through stimulation of Fyn auto-phosphorylation, through phosphorylation of Fyn by ErbB4, or through phosphorylation of Fyn by an ErbB4 activated tyrosine kinase other than Fyn.
Thus, NRG1-induced ErbB4 phosphorylation under conditions in which Fyn and related Src-family kinases were inhibited by PP2 (selective Src-family kinase inhibitor described above). […] This may result in the creation of additional SH2 domain docking sites, thus leading to further activation of Fyn as part of a positive feedback mechanism involving NRG1, ErbB4 and Src-family kinases.
Background: Immunoblotting shows a protein as a band on a membrane.

Experiment [2] deals with Fyn. Briefly: Fyn phosphorylation in HEK293 cells stably expressing ErbB4 and Fyn-V5 (Western blot). In kind it is cell-based. On the procedure: as §1
These alternatives were distinguished by applying PP2 (25 nM; Calbiochem, San Diego, Calif.) a relatively selective Src-family kinase inhibitor, to inhibit Fyn while ErbB4 signaling was stimulated with NRG1. […] Fyn was phosphorylated at a low level on Tyr420 under basal conditions. […] After NRG1 stimulation, an increase in Fyn Tyr420 phosphorylation was seen, even under conditions in which PP2 was used to inhibit p59 Fyn autophosphorylation. […]

Experiment [3] deals with NMDA receptor subunit NR2B. The experiment is described as follows: NR2B Tyr1472 phosphorylation in mouse hippocampal lysates (Western blot). In kind it is in vivo. On the procedure: To further characterize components of the NRG1/ErbB4 signaling pathway a-ErbB4 co-immunoprecipitates from mouse brain hippocampus were analyzed. […] Hippocampus tissue was isolated by manual dissection and homogenized in DOC buffer (20 μM ZnCl2, 50 mM Tris pH 9.0, 1% DOC) (1 ml/50 mg of tissue) containing protease and phosphatase inhibitors as above. 25U Benzonase Nuclease per 1 ml of lysate were added to each sample during a 60 minute incubation at 4° C. For SDS-PAGE and Western blot, sample protein content was determined using a BCA Protein Assay Reagent Kit (Pierce, Rockford, Ill.), adjusted to a final concentration of 2 μg/μl total protein in 1×SDS-PAGE sample buffer, and then 20-25 μg of protein was loaded per gel lane. For immunoprecipitation, samples were adjusted to a final concentration of 2 μg/μl total protein in DOC buffer. […]
It was hypothesized that NRG1^+/− and ErbB4^+/− mutant mice might show altered regulation of NMDA receptor subunit NR2B Tyr1472 phosphorylation related to their abnormal behavioral phenotype. Hippocampal lysates were analyzed as described in Example 1. It was determined that Tyr1472 of NR2B was hypo-phosphorylated in hippocampal lysates from 9 month old NRG1^+/− or ErbB4^+/− mutant mice as compared to age and sex matched C57B1/6 control mice (FIG. 3). […]

The subject of another experiment is NRG1+/− mutant mice. The experiment is described as follows: Open field test. Type of experiment: in vivo, mouse. The settings on record: single exposure. On the procedure:
NRG1 hypomorphic mutant mice (NRG1^+/−) are heterozygotic mice that have a mutant NRG1 allele in which the NRG1 exon encoding the transmembrane domain is disrupted in the heterozygote. These mice develop normally and breed well. […] Treatment of the NRG1^+/−mice with a clozapine (1 mg/kg), an atypical antipsychotic drug commonly used to treat schizophrenia, for 25 minutes prior to testing reversed the behavioral abnormality. […] In addition, it is known that the NRG1^+/− had 16% fewer functional NMDA receptors overall as compared to litter-mate controls as determined by MK-801 (NMDA antagonist) binding studies on forebrain homogenates (Steffanson et al., Am. J. Hum. Genet. 72: 83-7, 2003). Therefore, these mice are relevant as an in vivo model for schizophrenia.
Behavioral abnormality of NRG1^+/− mutant mice observed in the open field test is reversible with clozapine at a dose of 1 mg/kg i.p. The activity level of wild-type litter mate controls is not affected by that dose of clozapine. Thus, clozapine is not simply sedating at 1 mg/kg i.p., but has a selective effect on the behavioral abnormality of NRG1^+/− mutant mice. Reversal of the behavioral abnormality occurred rapidly within 25 minutes of a single exposure to clozapine.

Regarding `CC(C)(C)n1nc(-c2ccc(Cl)cc2)c2c(N)ncnc21` [PP2], the 50% inhibitory concentration (IC50) with Fyn [1] (read-out: Fyn inhibition IC50) is […]. For the same compound, the “NRG1 induced tyrosine phosphorylation” value in the experiment on ErbB4 (HEK293 cells expressing only ErbB4) is “no effect”. Also, the ErbB4 basal phosphorylation result in the experiment on ErbB4 (absence of NRG1) is on record as “no effect”. Besides, the “NRG1-induced ErbB4 tyrosine phosphorylation” value with ErbB4 is “greatly reduced”. Also, in the experiment on Fyn [2] (basal conditions, 24 hour preincubation, 25 nM), the “basal Fyn Tyr420 phosphorylation” value was “reduced”.
For the compound `Nc1ncnc2c1cnn2-c1ccccc1` [PP3], in the experiment on Fyn [1] (control kinase inhibitor), the “effect on Fyn” value is “no effect on Fyn”. Moreover, the “NRG1-induced ErbB4 tyrosine phosphorylation” value with ErbB4 was “no effect”. The Fyn phosphorylation entry in the experiment on Fyn [2] (control compound) was “no effect”.
Turning to `CN1CCN(C2=Nc3cc(Cl)ccc3Nc3ccccc32)CC1` [clozapine], the “increase of NR2B Tyr1472 phosphorylation” value in experiment [3] (NRG1+/− mutant mice, 1 mg/kg i.p., 25 minutes after injection, normalized against total NR2B) is 2.5-3 fold. In addition, the “NR2B Tyr1472 phosphorylation” value in experiment [3] (wild-type mice, same dose) is reported as “no effect”. The “time to reversal of the behavioral abnormality” value in the experiment with NRG1+/− mutant mice is not above 25 min.

For orientation: IC50 means the point on the concentration scale where inhibition reaches its midpoint.
